According to doi:10.1101/2025.10.14.682402v1 (biorxiv, 2025):

Columns and labels:
ULK2 [1] = target: T1, ULK2 (Homo sapiens, UniProt Q8IYT8); test: ADP-Glo kinase assay; format: biochemical
T1 sequence (Q8IYT8 1-1036): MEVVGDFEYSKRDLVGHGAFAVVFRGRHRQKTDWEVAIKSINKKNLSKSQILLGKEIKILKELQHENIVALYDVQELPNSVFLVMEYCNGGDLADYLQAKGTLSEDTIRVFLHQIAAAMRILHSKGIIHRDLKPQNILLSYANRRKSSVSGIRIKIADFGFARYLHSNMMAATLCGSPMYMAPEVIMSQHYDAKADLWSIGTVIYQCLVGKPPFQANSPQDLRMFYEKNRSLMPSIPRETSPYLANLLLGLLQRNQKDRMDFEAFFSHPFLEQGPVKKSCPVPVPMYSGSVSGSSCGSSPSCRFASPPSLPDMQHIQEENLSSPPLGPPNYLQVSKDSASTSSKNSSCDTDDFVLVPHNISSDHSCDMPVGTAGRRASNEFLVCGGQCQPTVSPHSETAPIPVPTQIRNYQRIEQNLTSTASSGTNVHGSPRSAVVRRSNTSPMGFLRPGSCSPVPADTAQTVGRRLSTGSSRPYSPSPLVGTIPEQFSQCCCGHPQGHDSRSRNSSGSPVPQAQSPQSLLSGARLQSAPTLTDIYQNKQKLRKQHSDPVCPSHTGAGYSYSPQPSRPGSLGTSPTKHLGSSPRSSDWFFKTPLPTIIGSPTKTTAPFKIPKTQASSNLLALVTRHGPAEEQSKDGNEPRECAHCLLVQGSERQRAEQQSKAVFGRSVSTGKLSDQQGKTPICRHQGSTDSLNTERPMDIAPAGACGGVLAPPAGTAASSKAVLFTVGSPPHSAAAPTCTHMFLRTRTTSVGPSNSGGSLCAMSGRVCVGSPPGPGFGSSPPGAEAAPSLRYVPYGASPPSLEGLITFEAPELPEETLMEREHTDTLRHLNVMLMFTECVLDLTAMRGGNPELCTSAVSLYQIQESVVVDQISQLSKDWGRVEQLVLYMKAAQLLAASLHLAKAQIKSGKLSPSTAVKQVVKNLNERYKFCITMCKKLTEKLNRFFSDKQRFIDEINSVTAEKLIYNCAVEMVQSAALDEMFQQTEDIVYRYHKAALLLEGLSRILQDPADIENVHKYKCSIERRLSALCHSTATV

ULK1 [2] = target: T2, ULK1 (Homo sapiens, UniProt O75385); test: ADP-Glo kinase assay; format: biochemical
T2 sequence (O75385 1-1050): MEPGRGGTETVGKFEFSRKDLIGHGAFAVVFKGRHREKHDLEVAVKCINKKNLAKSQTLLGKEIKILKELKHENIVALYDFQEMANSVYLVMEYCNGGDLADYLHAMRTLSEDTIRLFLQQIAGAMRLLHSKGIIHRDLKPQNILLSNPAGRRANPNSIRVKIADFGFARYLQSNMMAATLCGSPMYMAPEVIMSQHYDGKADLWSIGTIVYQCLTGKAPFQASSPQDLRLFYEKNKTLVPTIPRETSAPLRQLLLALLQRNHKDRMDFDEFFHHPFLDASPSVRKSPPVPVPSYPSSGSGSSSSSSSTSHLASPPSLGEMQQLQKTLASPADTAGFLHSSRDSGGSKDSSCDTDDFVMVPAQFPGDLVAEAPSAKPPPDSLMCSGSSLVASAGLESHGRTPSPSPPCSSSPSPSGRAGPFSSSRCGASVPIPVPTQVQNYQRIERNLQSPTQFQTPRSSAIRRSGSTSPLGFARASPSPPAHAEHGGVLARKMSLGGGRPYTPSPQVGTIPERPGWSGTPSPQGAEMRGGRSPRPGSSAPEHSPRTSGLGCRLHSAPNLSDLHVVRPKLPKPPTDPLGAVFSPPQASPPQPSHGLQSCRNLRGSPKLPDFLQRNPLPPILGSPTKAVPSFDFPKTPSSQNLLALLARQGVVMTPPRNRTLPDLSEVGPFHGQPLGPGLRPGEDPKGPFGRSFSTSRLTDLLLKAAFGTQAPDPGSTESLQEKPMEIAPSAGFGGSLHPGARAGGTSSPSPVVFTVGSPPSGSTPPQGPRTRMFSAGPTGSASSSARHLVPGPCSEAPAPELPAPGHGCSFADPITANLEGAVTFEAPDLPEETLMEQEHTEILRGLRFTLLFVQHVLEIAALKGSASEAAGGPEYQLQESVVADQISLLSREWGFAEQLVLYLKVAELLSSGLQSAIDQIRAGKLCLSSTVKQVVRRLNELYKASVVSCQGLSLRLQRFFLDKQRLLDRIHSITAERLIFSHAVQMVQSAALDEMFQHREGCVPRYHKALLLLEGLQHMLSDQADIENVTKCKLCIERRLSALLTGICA

kinase domain of ULK1 = target: T3, kinase domain of ULK1 (Homo sapiens, UniProt O75385); conditions: binder
T3 sequence (O75385 1-283 limits assumed): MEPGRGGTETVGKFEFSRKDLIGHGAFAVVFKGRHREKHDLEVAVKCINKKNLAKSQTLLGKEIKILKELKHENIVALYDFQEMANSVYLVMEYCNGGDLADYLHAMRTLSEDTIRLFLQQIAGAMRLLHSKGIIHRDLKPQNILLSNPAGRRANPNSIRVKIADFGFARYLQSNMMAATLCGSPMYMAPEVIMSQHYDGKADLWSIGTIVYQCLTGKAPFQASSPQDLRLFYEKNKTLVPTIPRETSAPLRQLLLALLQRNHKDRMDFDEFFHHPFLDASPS

kinase domain of ULK2 = target: T4, kinase domain of ULK2 (Homo sapiens, UniProt Q8IYT8); conditions: binder
T4 sequence (Q8IYT8 1-276 limits assumed): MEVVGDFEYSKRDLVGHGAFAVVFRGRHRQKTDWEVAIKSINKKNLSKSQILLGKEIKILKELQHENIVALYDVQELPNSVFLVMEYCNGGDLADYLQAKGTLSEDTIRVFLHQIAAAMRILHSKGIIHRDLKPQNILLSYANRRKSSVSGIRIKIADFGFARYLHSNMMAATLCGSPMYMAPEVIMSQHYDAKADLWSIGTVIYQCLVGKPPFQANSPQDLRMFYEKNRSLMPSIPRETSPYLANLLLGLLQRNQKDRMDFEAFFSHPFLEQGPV

ULK1 (NanoBRET) = target: T5, ULK1 (NanoBRET) (Homo sapiens, UniProt O75385); test: NanoBRET cellular target engagement; format: cell-based
T5 sequence (O75385 1-1050): T2 sequence (O75385 1-1050)

ULK1 [3] = target: T2, ULK1; test: biochemical
ULK2 [4] = target: T1, ULK2; test: biochemical

Row | IC50 (ULK2 [1]) | IC50 (ULK1 [2]) | ULK1 PTS (ºC) (kinase domain of ULK1) | ULK2 PTS (ºC) (kinase domain of ULK2) | IC50 (ULK1 (NanoBRET)) | IC50 (ULK1 [3]) | IC50 (ULK2 [4]) | Structure (SMILES)
1 | > 3000 nM | 153 nM | 3.65 ± 0.07 °C | 2.31 ± 0.09 °C |  |  |  | CNC(=O)c1ccccc1Nc1nc(Nc2ccc(N3CCOCC3)cc2OC)ncc1Cl [6a, 2-(5-Chloro-2-(2-methoxy-4-morpholinophenylamino)pyrimidin-4-ylamino)-N-methylbenzamide]
2 | 172 nM |  | 7.70 ± 0.43 °C | 3.73 ± 0.81 °C | 103 nM | 8 ± 2 nM |  | CNC(=O)c1ccccc1Nc1nc(Nc2ccc3c(c2)CCC(=O)N3)ncc1C(F)(F)F [6d, N-Methyl-2-(2-(2-oxo-1,2,3,4-tetrahydroquinolin-6-ylamino)-5-(trifluoromethyl)pyrimidin-4-ylamino)benzamide]
3 | 1440 nM | 22 nM | 0.15 ± 0.06 °C | 0.43 ± 0.34 °C |  |  |  | CNC(=O)c1ccccc1Nc1nc(Nc2ccc3c(c2)CCC(=O)N3)ncc1Cl [6e, 2-(5-Chloro-2-(2-oxo-1,2,3,4-tetrahydroquinolin-6-ylamino)pyrimidin-4-ylamino)-N-methylbenzamide]
4 | 7 nM | 10 nM | 16.50 ± 0.15 °C | 15.81 ± 0.06 °C | 10 nM |  |  | CNC(=O)c1ccccc1Nc1nc(Nc2cc(OC)c(OC)c(OC)c2)ncc1C(F)(F)F [6p, N-Methyl-2-(5-(trifluoromethyl)-2-(3,4,5-trimethoxyphenylamino)pyrimidin-4-ylamino)benzamide]
5 | 30000 nM | 603 nM | 5.18 ± 0.17 °C | 2.71 ± 0.09 °C |  |  | > 3000 nM | CNC(=O)c1ccccc1Nc1ccnc(Nc2cc(OC)c(OC)c(OC)c2)n1 [6q, N-Methyl-2-(2-(3,4,5-trimethoxyphenylamino)pyrimidin-4-ylamino)benzamide]
